Measured values taken from ChEMBL document CHEMBL5257070, “The Asymmetric Total Synthesis and Configuration Confirmation of Aplysiaenal and Nhatrangin A, Truncated Derivatives of Aplysiatoxin and Oscillatoxin” (J Nat Prod, 2023).

What was measured:
L1210 = experiment: Cytotoxicity against mouse L1210 cells incubated for 72 hrs by WST-8 method; assay type: functional, cell-based; conditions: L1210, 72 h
HCT-116 = experiment: Cytotoxicity against human HCT-116 cells incubated for 72 hrs by MTT assay; assay type: functional, cell-based; conditions: HCT-116, 72 h

CO[C@@H](CC[C@H](C)[C@H]1O[C@@]2(C=C[C@@H]1C)[C@H](C(=O)O[C@H]1COC(=O)C1)C(=O)[C@H](C)CC2(C)C)c1cccc(O)c1
IC50 (L1210): 48 µM

CO[C@@H](CC[C@H](C)[C@@H](OC(=O)C[C@@H](O)[C@@H](C)O)[C@@H](C)C(=O)O)c1cccc(O)c1
IC50 (HCT-116): > 100 µM
IC50 (L1210): > 100 µM

CO[C@@H](CC[C@H](C)/C=C(\C)C=O)c1cccc(O)c1
IC50 (HCT-116): > 100 µM
IC50 (L1210): 93 µM
